Values joined by “and” are separate entries in the source; they are usually repeats but may differ in a detail not shown here. Equal values may be shown once. Read-outs that look alike come from different tables or passages of the source.
Columns and labels:
HIV-2 (ROD) = test: Anti-HIV activity in MT-4 cells; assay type: cell-based
MT-4 cells = test: Cytotoxicity in uninfected MT-4 cells; assay type: cell-based; conditions: uninfected MT-4 cell viability reduced by 50%
WT HIV-1 RT = WT HIV-1 RT (Human immunodeficiency virus type 1 group M subtype B, UniProt P03366); test: HIV-1 RT inhibition assay; assay type: biochemical; conditions: for RT IC50: WT HIV-1 RT, mean of at least two separate experiments
HIV-1 RT RNase H = HIV-1 RT RNase H (Human immunodeficiency virus type 1 group M subtype B, UniProt P03366); test: HIV-1 RT RNase H inhibition; assay type: biochemical; conditions: for RNase H IC50: mean of four separate experiments
[1] = Cytotoxicity in uninfected MT-4 cells; assay type: cell-based; conditions: human, uninfected MT-4 cells
HIV-1 L100I = test: Anti-HIV-1 activity against mutant strain L100I in MT-4 cells; assay type: cell-based
HIV-1 K103N = test: Anti-HIV-1 activity against mutant strain K103N in MT-4 cells; assay type: cell-based
HIV-1 Y181C = test: Anti-HIV-1 activity against mutant strain Y181C in MT-4 cells; assay type: cell-based
HIV-1 Y188L = test: Anti-HIV-1 activity against mutant strain Y188L in MT-4 cells; assay type: cell-based
HIV-1 E138K = test: Anti-HIV-1 activity against mutant strain E138K in MT-4 cells; assay type: cell-based
[2] = tested on: HIV-1 RES056 (K103N/Y181C); test: Anti-HIV-1 activity against double mutant RES056 in MT-4 cells; assay type: cell-based
HIV-1 F227L + V106A = test: Anti-HIV-1 activity against double mutant F227L + V106A in MT-4 cells; assay type: cell-based
CYP2C9 = CYP2C9 (Homo sapiens, UniProt P11712); test: Cytochrome P450 inhibition, CYP2C9; assay type: in vitro ADME
CYP2C19 = CYP2C19 (Homo sapiens, UniProt P33261); test: Cytochrome P450 inhibition, CYP2C19; assay type: in vitro ADME
[3] = In vivo pharmacokinetics in SD rats; conditions: rat, plasma
CYP3A4M = CYP3A4M (Homo sapiens, UniProt P08684)
CYP1A2 = target: T1, CYP1A2 (Homo sapiens, UniProt P05177); test: biochemical
T1 sequence (P05177 1-516): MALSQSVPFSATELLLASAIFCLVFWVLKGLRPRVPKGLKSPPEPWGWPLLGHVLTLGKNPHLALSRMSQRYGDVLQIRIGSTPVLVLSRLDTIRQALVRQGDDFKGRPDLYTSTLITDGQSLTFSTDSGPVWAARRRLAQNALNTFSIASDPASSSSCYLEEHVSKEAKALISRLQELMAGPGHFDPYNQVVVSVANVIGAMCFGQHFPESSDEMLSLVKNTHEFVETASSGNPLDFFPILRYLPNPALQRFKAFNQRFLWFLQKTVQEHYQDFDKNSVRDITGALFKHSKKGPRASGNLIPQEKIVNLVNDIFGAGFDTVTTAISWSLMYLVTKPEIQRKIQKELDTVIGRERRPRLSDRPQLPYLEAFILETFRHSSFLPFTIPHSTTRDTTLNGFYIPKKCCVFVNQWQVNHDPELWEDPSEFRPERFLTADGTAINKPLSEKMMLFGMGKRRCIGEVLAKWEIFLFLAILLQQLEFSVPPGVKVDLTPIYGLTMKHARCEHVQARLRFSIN

CYP2D6 = CYP2D6 (Homo sapiens, UniProt P10635); test: biochemical
[4] = Kinetic aqueous solubility; conditions: kinetic from dmso stock
[5] = Plasma protein binding, dialysis equilibrium method, rat
[6] = Plasma protein binding, dialysis equilibrium method, human
[7] = cited from earlier work
[8] = read-out: EC50 ROD, MT-4 cells, HIV-2 strain ROD
[9] = Human immunodeficiency virus 2, MT4, read-out: EC50 ROD
[10] = Human immunodeficiency virus 1, MT4, read-out: EC50 L100I
[11] = Human immunodeficiency virus 1, MT4, read-out: EC50 K103N
[12] = Human immunodeficiency virus 1, MT4, read-out: EC50 Y181C
[13] = Human immunodeficiency virus 1, MT4, read-out: EC50 Y188L
[14] = Human immunodeficiency virus 1, MT4, read-out: EC50 E138K
[15] = Human immunodeficiency virus 1, MT4, read-out: EC50 RES056
[16] = Human immunodeficiency virus 1, MT4, read-out: EC50 F227L + V106A
[17] = aqueous solution at pH 2.0, pH 2, aqueous buffer
[18] = aqueous solution at pH 7.0, pH 7, aqueous buffer
[19] = aqueous solution at pH 7.4, pH 7.4, aqueous buffer

Sequence of CYP2C19 (P33261 whole entry): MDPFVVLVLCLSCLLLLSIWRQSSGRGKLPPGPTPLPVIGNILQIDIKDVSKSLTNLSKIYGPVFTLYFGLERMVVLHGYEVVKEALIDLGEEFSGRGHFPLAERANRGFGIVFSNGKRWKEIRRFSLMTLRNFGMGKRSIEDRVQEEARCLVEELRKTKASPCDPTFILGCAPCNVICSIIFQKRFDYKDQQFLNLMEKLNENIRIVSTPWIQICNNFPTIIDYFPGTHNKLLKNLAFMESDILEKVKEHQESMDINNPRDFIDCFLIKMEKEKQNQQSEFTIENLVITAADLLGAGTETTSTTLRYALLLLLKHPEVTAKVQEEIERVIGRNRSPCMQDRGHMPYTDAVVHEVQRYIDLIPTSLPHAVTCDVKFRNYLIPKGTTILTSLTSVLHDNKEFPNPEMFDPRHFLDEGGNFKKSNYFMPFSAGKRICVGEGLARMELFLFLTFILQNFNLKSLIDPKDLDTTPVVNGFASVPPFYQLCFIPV
Sequence of CYP2C9 (P11712 whole entry): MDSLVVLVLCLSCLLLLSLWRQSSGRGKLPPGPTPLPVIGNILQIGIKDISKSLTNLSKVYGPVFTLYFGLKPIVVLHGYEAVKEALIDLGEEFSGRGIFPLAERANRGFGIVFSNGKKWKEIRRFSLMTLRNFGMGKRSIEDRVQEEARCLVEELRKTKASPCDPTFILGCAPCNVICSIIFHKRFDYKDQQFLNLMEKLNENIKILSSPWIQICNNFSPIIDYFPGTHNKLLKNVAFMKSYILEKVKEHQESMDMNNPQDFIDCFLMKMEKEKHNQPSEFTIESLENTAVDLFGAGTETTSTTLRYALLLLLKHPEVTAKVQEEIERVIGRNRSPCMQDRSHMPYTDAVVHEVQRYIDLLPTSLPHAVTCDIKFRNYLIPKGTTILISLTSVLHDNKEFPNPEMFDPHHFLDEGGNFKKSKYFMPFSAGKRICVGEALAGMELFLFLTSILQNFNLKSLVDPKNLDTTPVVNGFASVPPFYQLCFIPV
Sequence of CYP2D6 (P10635 whole entry): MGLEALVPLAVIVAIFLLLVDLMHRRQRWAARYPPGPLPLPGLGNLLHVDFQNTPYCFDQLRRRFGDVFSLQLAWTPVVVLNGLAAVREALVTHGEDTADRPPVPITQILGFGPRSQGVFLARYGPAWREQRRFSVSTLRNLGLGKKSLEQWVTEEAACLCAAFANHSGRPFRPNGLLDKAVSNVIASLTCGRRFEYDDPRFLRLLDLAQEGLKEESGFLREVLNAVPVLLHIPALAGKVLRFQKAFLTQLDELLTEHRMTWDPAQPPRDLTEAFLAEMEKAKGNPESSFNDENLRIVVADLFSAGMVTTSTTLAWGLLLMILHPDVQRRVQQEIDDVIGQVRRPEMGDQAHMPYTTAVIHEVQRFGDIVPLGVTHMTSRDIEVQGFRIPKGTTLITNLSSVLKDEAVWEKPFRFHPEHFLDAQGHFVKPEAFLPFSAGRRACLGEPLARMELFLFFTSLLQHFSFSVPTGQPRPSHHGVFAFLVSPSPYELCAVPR
Sequence of CYP3A4M (P08684 whole entry): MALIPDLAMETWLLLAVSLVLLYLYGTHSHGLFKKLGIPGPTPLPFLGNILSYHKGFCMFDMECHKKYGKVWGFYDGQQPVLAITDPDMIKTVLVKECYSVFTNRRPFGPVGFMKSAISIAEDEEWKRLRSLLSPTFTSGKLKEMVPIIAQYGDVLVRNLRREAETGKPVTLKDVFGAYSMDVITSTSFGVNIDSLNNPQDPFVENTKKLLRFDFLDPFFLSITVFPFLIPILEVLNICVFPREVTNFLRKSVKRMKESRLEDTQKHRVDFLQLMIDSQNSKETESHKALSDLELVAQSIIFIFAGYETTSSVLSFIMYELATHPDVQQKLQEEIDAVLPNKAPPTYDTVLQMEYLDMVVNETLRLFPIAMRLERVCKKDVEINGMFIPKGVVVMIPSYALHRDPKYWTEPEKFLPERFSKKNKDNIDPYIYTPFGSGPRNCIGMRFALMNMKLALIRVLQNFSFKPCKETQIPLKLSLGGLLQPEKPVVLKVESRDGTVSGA

| SMILES | CC50 (MT-4 cells) [µM] | EC50 (HIV-2 (ROD); [9]) [µM] | CC50 at 4 days [1] | EC50 (HIV-1 L100I; [10]) [nM] | EC50 (HIV-1 K103N; [11]) [nM] | EC50 (HIV-1 Y181C; [12]) [nM] | EC50 (HIV-1 Y188L; [13]) [nM] | EC50 (HIV-1 E138K; [14]) [nM] | EC50 [2, 15] [nM] | EC50 (HIV-1 F227L + V106A; [16]) [nM] | IC50 (WT HIV-1 RT) [nM] | IC50 (HIV-1 RT RNase H) [mM] | solubility kinetic ([4]; FaSSIF) | solubility kinetic [4, 17] | solubility kinetic [4, 18] | solubility kinetic [4, 19] | other results |
| --- | --- | --- | --- | --- | --- | --- | --- | --- | --- | --- | --- | --- | --- | --- | --- | --- | --- |
| COC(=O)CNc1nc(Nc2ccc(C#N)cc2)nc(Oc2c(C)cc(-c3ccc(C#N)cc3)cc2C)n1 [Compound 5a, Methyl (4-((4ʹ-cyano-3,5-dimethyl-[1,1ʹ-biphenyl]-4-yl)oxy)-6-((4-cyanophenyl)-amino)-1,3,5-triazin-2-yl) glycinate] | > 125 | – | – | – | – | – | – | – | – | – | – | – | – | – | – | – | EC50 (HIV-2 (ROD); [8]): 0.56 ± 0.14 µM; RT IC50 (WT HIV-1 RT): 0.047 ± 0.003 µg/mL; RNase H IC50 (HIV-1 RT RNase H): >600 µg/mL |
| Cc1cc(-c2ccc(C#N)cc2)cc(C)c1Oc1nc(NCCN2CCOCC2)nc(Nc2ccc(C#N)cc2)n1 [Compound 5j, 4ʹ-((4-((4-Cyanophenyl)amino)-6-((2-morpholinoethyl)amino)-1,3,5-triazin-2-yl)-oxy)-3ʹ,5ʹ-dimethyl-[1,1ʹ-biphenyl]-4-carbonitrile] | – | 0.05 ± 0.001 | 1.08 ± 0.09 µM | 12 ± 2 | 3 ± 1 | 13 ± 2 | 17 ± 3 | 6.4 ± 0.1 | 34 ± 4 | 17 ± 4 | 176 | > 1.1 | 41.6 µg/mL and 76.2 µM | 6.58 µg/mL and 12.1 µM | < 0.853 µg/mL and < 1.56 µM | < 0.853 µg/mL and < 1.56 µM | IC50 (CYP2C9): 32.9 µM; IC50 (CYP2C19): > 50 µM; AUC(0-inf) ([3]; iv, 1 mg/kg): 6660 ± 809 ng·h/mL; AUC(0-t) ([3]; iv, 1 mg/kg): 6650 ± 795 ng·h/mL; clearance ([3]; iv, 1 mg/kg): 5.06 ± 0.658 mL/min/kg; half-life ([3]; iv, 1 mg/kg): 44 ± 10.4 min; AUC(0-t) ([3]; po, 20 mg/kg): 322 ± 176 ng·h/mL; Cmax ([3]; po, 20 mg/kg): 43.2 ± 39.8 ng/mL; Tmax ([3]; po, 20 mg/kg): 13.3 ± 9.24 h; bioavailability ([3]; po, 20 mg/kg): 0.485%; IC50 (CYP3A4M): > 50 µM; IC50 (CYP1A2): > 50 µM; IC50 (CYP2D6): > 50 µM; recovery at 2 μmol/L [5]: 99.5%; recovery at 2 μmol/L [6]: 84.9% |
| COC(=O)CNc1nc(Nc2ccc(C#N)cc2)nc(Nc2c(C)cc(-c3ccc(C#N)cc3)cc2C)n1 [Compound 6b, Methyl (4-((4ʹ-cyano-3,5-dimethyl-[1,1ʹ-biphenyl]-4-yl)amino)-6-((4-cyanophenyl)amino)-1,3,5-triazin-2-yl) glycinate] | > 125 | – | – | – | – | – | – | – | – | – | – | – | – | – | – | – | EC50 (HIV-2 (ROD); [8]): 21.5 µM; RT IC50 (WT HIV-1 RT): 0.033 ± 0.004 µg/mL; RNase H IC50 (HIV-1 RT RNase H): >600 µg/mL |
| Cc1cc(-c2ccc(C#N)cc2)cc(C)c1Nc1nc(NCC2CCOC2)nc(Nc2ccc(C#N)cc2)n1 (stereo not shown) [Compound 6e, 4ʹ-((4-((4-Cyanophenyl)amino)-6-(((tetrahydrofuran-3-yl)methyl)amino)-1,3,5-triazin-2-yl)amino)-3ʹ,5ʹ-dimethyl-[1,1ʹ-biphenyl]-4-carbonitrile] | – | 7.91 ± 5.7 | > 125 µM | 22 ± 6 | 3.4 ± 0.5 | 11 ± 1 | 50 ± 8 | 5.3 ± 3.3 | 60 ± 7 | ≥ 16400 | 106 | > 1.16 | 60.5 µg/mL and 117 µM | 12.1 µg/mL and 23.4 µM | < 0.806 µg/mL and < 1.56 µM | < 0.806 µg/mL and < 1.56 µM | – |
| Cc1cc(-c2ccc(C#N)cc2)cc(C)c1Nc1nc(Nc2ccc(C#N)cc2)nc(N2CCN(C)CC2)n1 [Compound 6i, 4ʹ-((4-((4-Cyanophenyl)amino)-6-(4-methylpiperazin-1-yl)-1,3,5-triazin-2-yl)amino)-3ʹ,5ʹ-dimethyl-[1,1ʹ-biphenyl]-4-carbonitrile] | – | > 3.69 | 3.69 ± 2.98 µM | 29 | 7.4 ± 2.1 | 17 ± 5 | 67 ± 16 | 10 ± 2 | 350 ± 80 | ≥ 3690 | 227 | > 1.16 | 60.6 µg/mL and 117 µM | 77.3 µg/mL and 150 µM | < 0.804 µg/mL and < 1.56 µM | < 0.804 µg/mL and < 1.56 µM | – |
| Cc1cc(-c2ccc(C#N)cc2)cc(C)c1Nc1nc(Nc2ccc(C#N)cc2)nc(N2CCC(O)C2)n1 (stereo not shown) [Compound 6k, 4ʹ-((4-((4-Cyanophenyl)amino)-6-(3-hydroxypyrrolidin-1-yl)-1,3,5-triazin-2-yl)-amino)-3ʹ,5ʹ-dimethyl-[1,1ʹ-biphenyl]-4-carbonitrile] | – | > 4.54 | 4.54 ± 2.56 µM | 4.1 ± 0.5 | 2.3 ± 0.5 | 3 ± 0.2 | 10 ± 3 | 3.5 ± 0.8 | 60 | 1040 | 103 | > 1.19 | 53.4 µg/mL and 104 µM | 53.7 µg/mL and 104 µM | < 0.784 µg/mL and < 1.56 µM | < 0.784 µg/mL and < 1.56 µM | – |
| O=C1Nc2ccc(Cl)cc2[C@@](C#CC2CC2)(C(F)(F)F)O1 [EFV, reference compound] | >2.0 | – | – | – | – | – | – | – | – | – | – | – | – | – | – | – | EC50 (HIV-1 L100I; read-out: EC50 L100I, MT-4 cells, single mutant): 14 nM; EC50 (HIV-1 K103N; read-out: EC50 K103N, MT-4 cells, single mutant): 30 ± 11 nM; EC50 (HIV-1 Y181C; read-out: EC50 Y181C, MT-4 cells, single mutant): 1.3 ± 0.1 nM; EC50 (HIV-1 Y188L; read-out: EC50 Y188L, MT-4 cells, single mutant): 82 ± 7 nM; EC50 (HIV-1 E138K; read-out: EC50 E138K, MT-4 cells, single mutant): 1.5 ± 0.1 nM; EC50 ([2]; read-out: EC50 RES056, MT-4 cells, double mutant K103N/Y181C): 71 ± 36 nM; EC50 (HIV-1 F227L + V106A; read-out: EC50 F227L + V106A, MT-4 cells, double mutant): 84 ± 20 nM |
| Cc1cc(C#N)cc(C)c1Oc1nc(Nc2ccc(C#N)cc2)nc(N)c1Br [ETR, etravirine, reference compound] | – | – | > 2 µg/mL | – | – | – | – | – | – | – | – | – | 13.2 µg/mL and 30.3 µM | 127 µg/mL and 291 µM | < 1 µg/mL and < 2.3 µM | < 1 µg/mL and < 2.3 µM | CC50 (MT-4 cells; listed as ETV): >2.0 µM; aqueous solubility [7]: lower than 1 μg/mL |
| CC(=O)CC(c1ccccc1)c1c(O)c2ccccc2oc1=O (stereo not shown) [Warfarin, reference compound] | – | – | – | – | – | – | – | – | – | – | – | – | – | – | – | – | recovery at 2 μmol/L [5]: 99%; recovery at 2 μmol/L [6]: 86% |
